Reference: patent publication US9938276B2, “6,5-bicyclic octahydropyrrolopyridine orexin receptor antagonists” (Merck Sharp & Dohme Corp., priority 2014, dated 2018)

Assays:
[1] = target: hOX1R (Homo sapiens, UniProt O43613); assay: hOX1R FLIPR Ca2+ flux assay; type: cell-based; conditions: CHO cells expressing the receptor; agonist 70 pM Ala-6,12 human orexin-A
[2] = target: human orexin-2 receptor (Homo sapiens (Human), UniProt O43614); assay: hOX2R FLIPR Ca2+ flux assay; type: cell-based; conditions: CHO cells expressing the receptor; agonist 70 pM Ala-6,12 human orexin-A
Chain of human orexin-2 receptor (O43614 whole entry): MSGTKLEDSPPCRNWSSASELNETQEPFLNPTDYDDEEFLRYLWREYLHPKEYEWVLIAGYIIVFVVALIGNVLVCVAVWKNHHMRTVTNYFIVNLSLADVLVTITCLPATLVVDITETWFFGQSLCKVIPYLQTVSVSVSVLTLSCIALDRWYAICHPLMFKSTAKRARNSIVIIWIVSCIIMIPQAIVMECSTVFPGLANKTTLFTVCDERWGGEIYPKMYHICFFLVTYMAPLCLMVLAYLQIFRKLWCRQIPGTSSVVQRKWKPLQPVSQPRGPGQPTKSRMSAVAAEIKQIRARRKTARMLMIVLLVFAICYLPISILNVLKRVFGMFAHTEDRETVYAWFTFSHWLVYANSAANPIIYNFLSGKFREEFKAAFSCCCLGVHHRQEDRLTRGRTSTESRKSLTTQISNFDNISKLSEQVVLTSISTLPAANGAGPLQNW
Method in brief: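 Antagonism read as peak Ca2+ fluorescence (FLIPR, 1 s intervals over 5 min) relative to the 70 pM Ala-6,12 orexin-A response without antagonist. Cells: CHO expressing rat OX1R or human OX2R, Fluo-4AM-loaded; HBSS/20 mM HEPES/0.1% BSA/2.5 mM probenecid, pH 7.4.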

| SMILES | IC50 [1] | IC50 [2] |
| --- | --- | --- |
| N#Cc1ccnc(N2CC[C@@H]3CCN(C(=O)c4ccccc4C4CC4(F)F)C[C@@H]32)c1 (stereo partly drawn) [Example E22, 2-[(3aR, 7aR)-6-{[2-(2,2-difluorocyclopropyl)phenyl]carbonyl}octa-hydro-1H-pyrrolo[2,3-c]pyridin-1-yl]pyridine-4-carbonitrile] | 10000 nM | 43.8 nM |
| N#Cc1ccnc(N2CC[C@@H]3CCN(C(=O)c4ccccc4-c4ncccn4)C[C@@H]32)c1 [Example E23, 2-{(3aR, 7aR)-6-[(2-pyrimidin-2-ylphenyl)carbonyl]octahydro-1H-pyrrolo[2,3-c]pyridin-1-yl}pyridine-4-carbonitrile] | ≥ 10000 nM | 99.5 nM |
| NC(=O)c1ccnc(N2CC[C@@H]3CCN(C(=O)c4ccccc4-n4nccn4)C[C@@H]32)c1 [Example F1, 2-((3aR,7aR)-6-(2-(2H-1,2,3-triazol-2-yl)benzoyl)octahydro-1H-pyrrolo[2,3-c]pyridin-1-yl)isonicotinamide] | ≥ 10000 nM | 562 nM |
| N#Cc1ccnc(N2CC[C@@H]3C[C@@H](CO)N(C(=O)c4ccccc4-n4nccn4)C[C@@H]32)c1 [Example G1, 2-((3aR,5S,7aR)-6-(2-(2H-1,2,3-triazol-2-yl)benzoyl)-5-(hydroxymethyl)octahydro-1H-pyrrolo[2,3-c]pyridin-1-yl)isonicotinonitrile] | 2750 nM | 8.2 nM |
| CCOC(=O)[C@@H]1C[C@H]2CCN(c3cc(C#N)ccn3)[C@H]2CN1C(=O)c1ccccc1-n1nccn1 [Example G2, (3aR,5S,7aR)-ethyl 6-(2-(2H-1,2,3-triazol-2-yl)benzoyl)-1-(4-cyanopyridin-2-yl)octahydro-1H-pyrrolo[2,3-c]pyridine-5-carboxylate] | ≥ 10000 nM | 198 nM |
| N#Cc1ccnc(N2CC[C@@H]3C[C@@H](CO)N(C(=O)c4ccccc4-n4nccn4)C[C@@H]32)c1 [Example G4] | 10000 nM | 2080 nM |
| C[C@H]1C[C@H]2CCN(c3cc(C#N)ccn3)[C@H]2CN1C(=O)c1ccccc1-n1nccn1 [Example H1, 2-(6-(2-(2H-1,2,3-triazol-2-yl)benzoyl)-5-methloctahydro-1H-pyrrolo[2,3-c]pyridin-1-yl)isonicotinonitrile] | 2370 nM | 18.4 nM |
